The supplement of paper PMC5908809

Key:
[1] = test system: normal NK cells expanded with K562-aAPC; experiment: percent inhibition of viability; higher = more inhibition; details: 72 h, IL-2 2.5 ng/mL
Protocol: (§1)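 Drug sensitivity and resistance testing on K562-aAPC-expanded normal NK cells: 5 concentrations (10-fold steps over a 10,000-fold range), 72 h at 37 °C, viability by CellTiter-Glo normalised to DMSO and benzethonium chloride controls; DSS from the fitted curve.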

[2] = test system: normal primary NK cells, pool 2 (3 donors) (IL-2 2.5 ng/mL); experiment: drug sensitivity score (DSS) (DSS units); higher = more sensitive; extreme values may be limits of the assay; details: 72 h
[3] = test system: normal primary NK cells, pool 1 (3 donors) (IL-2 2.5 ng/mL); experiment: as above; details: 72 h
[4] = test system: IMC-1 (IL-2 20 ng/mL); experiment: as above; details: 72 h
[5] = test system: YT (IL-2 2.5 ng/mL); experiment: as above; details: 72 h
[6] = test system: SNK-6 (IL-2 2.5 ng/mL); experiment: as above; details: 72 h
[7] = test system: normal primary NK cells, pool 3 (3 donors) (IL-2 2.5 ng/mL); experiment: as above; details: 72 h
[8] = test system: NK-92 (IL-2 2.5 ng/mL); experiment: as above; details: 72 h
[9] = test system: NK-YS (IL-2 2.5 ng/mL); experiment: as above; details: 72 h
[10] = test system: normal primary NK cells, pool 1 (3 donors), resting (IL-2 0 ng/mL); experiment: as above; details: 72 h
[11] = test system: KHYG-1 (IL-2 2.5 ng/mL); experiment: as above; details: 72 h
[12] = test system: KAI3 (IL-2 2.5 ng/mL); experiment: as above; details: 72 h
[13] = test system: DERL-7 (IL-2 2.5 ng/mL); experiment: as above; details: 72 h
[14] = test system: NKL (IL-2 2.5 ng/mL); experiment: as above; details: 72 h
[15] = test system: normal NK cells expanded with K562-aAPC; experiment: as above; details: 72 h; IL-2 2.5 ng/mL
Protocol: as §1

[16] = test system: normal primary NK cells, pool 2 (3 donors) (IL-2 2.5 ng/mL); experiment: percent inhibition of viability; higher = more inhibition; details: 72 h
[17] = test system: normal primary NK cells, pool 1 (3 donors) (IL-2 2.5 ng/mL); experiment: as above; details: 72 h
[18] = test system: IMC-1 (IL-2 20 ng/mL); experiment: as above; details: 72 h
[19] = test system: YT (IL-2 2.5 ng/mL); experiment: as above; details: 72 h
[20] = test system: SNK-6 (IL-2 2.5 ng/mL); experiment: as above; details: 72 h
[21] = test system: normal primary NK cells, pool 3 (3 donors) (IL-2 2.5 ng/mL); experiment: as above; details: 72 h
[22] = test system: NK-92 (IL-2 2.5 ng/mL); experiment: as above; details: 72 h
[23] = test system: NK-YS (IL-2 2.5 ng/mL); experiment: as above; details: 72 h
[24] = test system: normal primary NK cells, pool 1 (3 donors), resting (IL-2 0 ng/mL); experiment: as above; details: 72 h
[25] = test system: KHYG-1 (IL-2 2.5 ng/mL); experiment: as above; details: 72 h
[26] = test system: KAI3 (IL-2 2.5 ng/mL); experiment: as above; details: 72 h
[27] = test system: DERL-7 (IL-2 2.5 ng/mL); experiment: as above; details: 72 h
[28] = test system: NKL (IL-2 2.5 ng/mL); experiment: as above; details: 72 h

Oc1c2ccccc2c2c3c(cccc13)N=N2 (max concentration tested 100000 nM)
percent inhibition of viability [%]
Details | 10 nM | 100 nM | 1000 nM | 10000 nM | 100000 nM
[1] | -5.86 | -5.73 | -0.03 | 16.2 | 46.2
[16] | -8.33 | -0.93 | 6.2 | 28.3 | 40.2
[17] | 1.28 | 6.88 | 11.3 | 22.6 | 57.5
[18] | -9.76 | -5.66 | -7.38 | 9.45 | 15.4
[19] | -6.35 | -2.65 | -2.78 | 17.4 | 42.7
[20] | -6.71 | -15.7 | -11.4 | 25.4 | 66.8
[21] | -1.96 | 3 | 10.6 | 5.71 | 43.7
[22] | 5.13 | 5.87 | 15.3 | 43.2 | 71.4
[23] | -9.38 | -3.05 | -7.51 | 20.3 | 61
[24] | 10.6 | 13.4 | 3.37 | 16 | 14.5
[25] | -9.58 | -4.25 | -1.77 | 41.2 | 79.2
[26] | -1.06 | -0.37 | -1.44 | 36 | 77.2
[27] | 0.02 | 10.7 | 21.6 | 53.3 | 72.7
[28] | -5.72 | 1.11 | 17.1 | 43.4 | 71.7

Details | drug sensitivity score
[2] | 5.61
[3] | 5.75
[4] | 0.95
[5] | 4.53
[6] | 7.17
[7] | 3.2
[8] | 10.2
[9] | 6.25
[10] | 0
[11] | 9.5
[12] | 8.9
[13] | 12.8
[14] | 10.3
[15] | 4.7

COc1cc2nccc(Oc3ccc(NC(=O)NC4CC4)c(Cl)c3)c2cc1C(N)=O [Lenvatinib] (max concentration tested 2500 nM)
percent inhibition of viability [%]
Details | 0.25 nM | 2.5 nM | 25 nM | 250 nM | 2500 nM
[1] | -4.04 | -5.14 | -2.63 | 6.46 | 19.2
[16] | -4.17 | -2.51 | -1.07 | -9.36 | -5.82
[17] | -3.95 | 5.45 | 5.1 | 3.42 | 13.3
[18] | -6.27 | -2.01 | -2.37 | 0.43 | 3.18
[19] | -8.36 | -6.83 | -3.92 | 0.74 | 22.8
[20] | -33.9 | -23.3 | -21.9 | -19.5 | -12.3
[21] | -0.41 | -2.47 | 2.78 | -8.95 | -1.48
[22] | -9.84 | 0.14 | -0.46 | 17.2 | 37.8
[23] | -8.22 | -3.14 | -1.94 | 6.7 | 25.7
[24] | -5.39 | 10.9 | 5.68 | 1.5 | 8.67
[25] | -6.43 | -1.14 | -3.61 | 2.55 | 13.7
[26] | -5.44 | 0.76 | 3.58 | 15.2 | 41.1
[27] | -0.62 | 1.25 | 2.95 | -3.62 | 5.92
[28] | -6.25 | -5.72 | 2.51 | 23.8 | 33.6

Details | drug sensitivity score
[2] | 0.89
[3] | 0.01
[4] | 0
[5] | 0.88
[6] | 0.89
[7] | 0
[8] | 4.08
[9] | 1.95
[10] | 0
[11] | 0.34
[12] | 3.76
[13] | 0
[14] | 4.35
[15] | 1.26

CO[C@H]1C[C@@H]2CC[C@@H](C)[C@@](O)(O2)C(=O)C(=O)N2CCCC[C@H]2C(=O)O[C@H]([C@H](C)C[C@@H]2CC[C@@H](O)[C@H](OC)C2)CC(=O)[C@H](C)/C=C(\C)[C@@H](O)[C@@H](OC)C(=O)[C@H](C)C[C@H](C)/C=C/C=C/C=C/1C [Sirolimus] (max concentration tested 100 nM)
percent inhibition of viability [%]
Details | 0.01 nM | 0.1 nM | 1 nM | 10 nM | 100 nM
[1] | -3.63 | -1.36 | 3.81 | 13.8 | 18.7
[16] | -8.36 | 2 | 15.3 | 16.1 | 24.9
[17] | 0.77 | -8.98 | 3.92 | 5.36 | 11.1
[18] | -3.21 | 1.18 | -3.68 | -15.7 | -35.8
[19] | -0.6 | 3.68 | 8.62 | 48.9 | 50
[20] | 7.11 | 11.7 | 26.8 | 58 | 53.6
[21] | -9.48 | -6.09 | 3.92 | 6.87 | 10.3
[22] | -4.22 | 6.09 | 10.4 | 22 | 41.1
[23] | -0.35 | 1.64 | 29.4 | 54.6 | 58.5
[24] | 1.62 | -12 | 3.7 | 1.9 | 13.7
[25] | -2.67 | 2.99 | 5.43 | 47.1 | 73.8
[26] | -2.33 | -1.67 | 15.9 | 44.7 | 54.9
[27] | 1.91 | 1.51 | 7.44 | 38.3 | 55.7
[28] | 10.2 | 24.2 | 45.2 | 58.8 | 68.7

Details | drug sensitivity score
[2] | 3.82
[3] | 0.01
[4] | 0
[5] | 10.3
[6] | 13.6
[7] | 0
[8] | 4.93
[9] | 13.8
[10] | 0.29
[11] | 9.94
[12] | 10
[13] | 8.02
[14] | 19.3
[15] | 1.68

Cn1cc(-c2ccc3nnc(Sc4ccc5ncccc5c4)n3n2)cn1 [SGX-523] (max concentration tested 5000 nM)
percent inhibition of viability [%]
Details | 0.5 nM | 5 nM | 50 nM | 500 nM | 5000 nM
[1] | -2.93 | -10.2 | -5.18 | -9.17 | -2.25
[16] | 1.04 | -8.92 | -3.62 | -0.26 | 11.5
[17] | -8.19 | -11.2 | -7.5 | -10.9 | 5.13
[18] | -3.56 | -0.25 | -5.07 | -2.74 | -1.91
[19] | -2.71 | -0.74 | -1.93 | 1.35 | -0.07
[20] | 3.69 | 0.4 | -1.97 | 8.43 | 7.74
[21] | 3.88 | -2.63 | 1.81 | 1.46 | 11.1
[22] | 0.34 | -0.3 | -4.47 | -3.94 | 1.25
[23] | 1.09 | -7.03 | -6.25 | -1.89 | -5.01
[24] | -11.2 | -4.96 | 17.1 | 10.2 | 32.6
[25] | -5.57 | -5.37 | -9.26 | -3.51 | -7.2
[26] | -4.24 | -1.01 | 0.45 | 4.1 | 9.78
[27] | 3.14 | 1.32 | -1.44 | 5.03 | 14.4
[28] | 3.77 | -3.27 | -2.38 | -4.59 | 3.26

Details | drug sensitivity score
[2] | 0.02
[3] | 0
[4] | 0.89
[5] | 0
[6] | 0
[7] | 0.04
[8] | 0
[9] | 0
[10] | 2.87
[11] | 0.89
[12] | 0
[13] | 0.58
[14] | 0
[15] | 0.89
